In experiment [1] the test system is NQO1 specific enzyme activity in BEAS-2B cells (marker for NRF2 activation). Put plainly: BEAS-2B NQO1 MTT Assay. It is filed as cell-based. The note with it: Homo sapiens, compound incubated 48 hours, read-out: EC50 (NQO1 specific enzyme activity induction). Summed up: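 BEAS-2B cells treated with compound for 48 h at 37 °C, then lysed; NQO1 activity in lysates measured kinetically by MTT reduction at A570 over 30 min. pEC50 from 3-parameter fit of ΔOD/min versus log concentration; lysate also taken for Cell Titer Glo.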

Experiment [2] concerns the target T1, Keap1 Kelch domain (321-609) / TAMRA-labeled 16mer NRF2 peptide (ETGE motif) (Homo sapiens, UniProt Q14145).
T1 construct: the Kelch domain (321-609) of Keap1 is used
Kind of experiment: NRF2-Keap1 FP Assay (Keap1 Kelch fluorescence polarization). The experiment is classed as binding. The note with it: 20 nM Keap1 (321-609), 8 nM Tamra labeled peptide. In short, it runs like this:
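Compound dilutions (3-fold) were incubated 1 hr at room temperature with 20 nM Keap1 Kelch (321-609) and 8 nM TAMRA-labeled ETGE 16mer peptide. Buffer was 50 mM Tris pH 8.0, 100 mM NaCl, 5 mM MgCl2, 1 mM DTT, 2 mM CHAPS, 0.005% BSA. Fluorescence polarization (mP) was normalized to controls and fitted with a four-parameter equation to give pIC50.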
On the technique in general: Fluorescence polarisation rises when a labelled molecule tumbles more slowly, as on binding a larger partner.

Experiment [3] deals with T2, full length Keap1 protein / full length NRF2 protein (Homo sapiens, UniProt Q14145).
T2 construct: full length NRF2 protein and full length Keap1 protein (Keap1 exists a dimer) are used; His
T2 sequence (Q14145 whole entry): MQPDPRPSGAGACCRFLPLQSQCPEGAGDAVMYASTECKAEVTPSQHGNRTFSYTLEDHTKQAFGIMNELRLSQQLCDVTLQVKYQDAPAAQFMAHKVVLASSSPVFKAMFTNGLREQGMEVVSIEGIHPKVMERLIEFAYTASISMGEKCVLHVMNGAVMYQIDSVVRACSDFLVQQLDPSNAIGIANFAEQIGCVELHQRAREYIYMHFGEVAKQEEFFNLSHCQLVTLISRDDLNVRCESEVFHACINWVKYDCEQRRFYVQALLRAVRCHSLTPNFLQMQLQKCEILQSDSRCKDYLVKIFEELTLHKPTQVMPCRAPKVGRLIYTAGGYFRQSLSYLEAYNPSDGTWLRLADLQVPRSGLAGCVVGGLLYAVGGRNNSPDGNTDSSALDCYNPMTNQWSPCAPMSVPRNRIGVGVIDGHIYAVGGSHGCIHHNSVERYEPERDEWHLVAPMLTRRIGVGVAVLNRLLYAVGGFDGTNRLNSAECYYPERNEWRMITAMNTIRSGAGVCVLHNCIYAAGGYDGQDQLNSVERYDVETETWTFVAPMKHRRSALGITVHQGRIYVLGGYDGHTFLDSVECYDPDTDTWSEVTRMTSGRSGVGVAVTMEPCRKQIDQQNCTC
Put plainly: NRF2-Keap1 TR-FRET Low Protein Assay. The experiment is classed as binding. The note with it: 1.25 nM Keap1 FlagHis and 2.5 nM biotin-NRF2 added. In short, it runs like this: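 Flag-tagged full-length Keap1 was preincubated with compound (3-fold series) for 2.25 h at 37 °C in Tris pH 8.0/MgCl2/NaCl/BSA/DTT/CHAPS. Biotin-Avi-NRF2 (added at 2.5 nM) was then bound for 1.25 h at 4 °C. Eu-streptavidin/anti-Flag-APC TR-FRET (665/615 nm) was read after 1 h at RT, and pIC50 came from a four-parameter fit.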
For orientation: TR-FRET usually uses a lanthanide donor and a delayed reading to cut background.

Where only a bound is given, the exact number is not on record here.

What is called EC50 is the concentration needed to bring the measured effect to its halfway point. The IC50 is the midpoint of a concentration-inhibition curve. Read a low IC50 as greater potency.

T1 sequence (Q14145 321-609): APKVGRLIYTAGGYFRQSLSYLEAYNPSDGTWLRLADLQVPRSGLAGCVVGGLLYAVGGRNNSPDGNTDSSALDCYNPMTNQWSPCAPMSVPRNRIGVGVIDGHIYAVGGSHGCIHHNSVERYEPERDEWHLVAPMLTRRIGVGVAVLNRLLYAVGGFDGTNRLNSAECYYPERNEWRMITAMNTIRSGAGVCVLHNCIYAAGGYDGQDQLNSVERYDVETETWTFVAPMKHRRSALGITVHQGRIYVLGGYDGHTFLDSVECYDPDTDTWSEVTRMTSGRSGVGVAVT

As to `C[C@H](Oc1cccc(-c2cccc(-n3ncc(C(=O)O)c3[C@@H]3C[C@H]3c3cn(C4CC4)nn3)c2)c1)C1CCCCC1` [Example 98, 1-(3′-((S)-1-Cyclohexylethoxy)-[1,1′-biphenyl]-3-yl)-5-((1R,2R)-2-(1-cyclopropyl-1H-1,2,3-triazol-4-yl)cyclopropyl)-1H-pyrazole-4-carboxylic acid], the EC50 in experiment [1] lay within 1 to 10 nM. Besides, the IC50 in experiment [2] was 10 to 100 nM; in experiment [3] it was less than 10 nM.

Consider `C[C@H](Oc1cccc(-c2cccc(-n3ncc(C(=O)O)c3[C@@H]3C[C@H]3c3c[nH]nn3)c2)c1)C1CCCCC1` [Example 99, 5-((1R,2R)-2-(1H-1,2,3-Triazol-4-yl)cyclopropyl)-1-(3′-((S)-1-cyclohexylethoxy)-[1,1′-biphenyl]-3-yl)-1H-pyrazole-4-carboxylic Acid], for which, in experiment [1], the EC50 fell in the range of 1 to 10 nM. Also, the IC50 in experiment [2] is 10 to 100 nM; in experiment [3], less than 10 nM.

Consider `C[C@H](Oc1cccc(-c2cccc(-n3ncc(C(=O)O)c3[C@H]3C[C@@H]3c3c[nH]nn3)c2)c1)C1CCCCC1` [Example 100, 5-((1S,2S)-2-(1H-1,2,3-Triazol-4-yl)cyclopropyl)-1-(3′-((S)-1-cyclohexylethoxy)-[1,1′-biphenyl]-3-yl)-1H-pyrazole-4-carboxylic Acid], for which, in experiment [1], the EC50 was 100 to 1000 nM. Besides, the IC50 in experiment [2] is 1000 to 10000 nM; in experiment [3], 100 to 1000 nM.

In the case of `C[C@H](Oc1cccc(-c2cccc(-n3ncc(C(=O)O)c3[C@@H]3C[C@H]3c3cn(C)nn3)c2)c1F)C1CCCCC1` [Example 104, 1-(3′-((S)-1-cyclohexylethoxy)-2′-fluoro-[1,1′-biphenyl]-3-yl)-5-((1R,2R)-2-(1-methyl-1H-1,2,3-triazol-4-yl)cyclopropyl)-1H-pyrazole-4-carboxylic Acid], in experiment [1], the EC50 fell in the range of 10 to 100 nM. Also, the IC50 in experiment [2] and in experiment [3] was 10 to 100 nM in each case.

Consider `CCOC(=O)c1cnn(-c2cccc(-c3cccc(O[C@@H](C)C4CCCCC4)c3)c2)c1[C@@H]1C[C@H]1c1cn(C)nn1` [Example 105, Ethyl 1-(3′-((S)-1-cyclohexylethoxy)-[1,1′-biphenyl]-3-yl)-5-((1R,2R)-2-(1-methyl-1H-1,2,3-triazol-4-yl)cyclopropyl)-1H-pyrazole-4-carboxylate], for which the EC50 in experiment [1] was less than 1 nM. Moreover, the IC50 is more than 10000 nM in experiment [2] and 1000 to 10000 nM in experiment [3].

For `C[C@H](Oc1cccc(-c2cccc(-n3ncc(C(=O)OC4CCOC4=O)c3[C@@H]3C[C@H]3c3cn(C)nn3)c2)c1)C1CCCCC1` (stereo partly drawn) [Example 106, 2-Oxotetrahydrofuran-3-yl 1-(3′-((S)-1-cyclohexylethoxy)-[1,1′-biphenyl]-3-yl)-5-((1R,2R)-2-(1-methyl-1H-1,2,3-triazol-4-yl)cyclopropyl)-1H-pyrazole-4-carboxylate], the EC50 in experiment [1] is 100 to 1000 nM. Besides, the IC50 was more than 10000 nM in experiment [2] and 1000 to 10000 nM in experiment [3].

`C[C@H](Oc1cccc(-c2cccc(-n3ncc(C(=O)OCCO)c3[C@@H]3C[C@H]3c3cn(C)nn3)c2)c1)C1CCCCC1` [Example 107, 2-Hydroxyethyl 1-(3′-((S)-1-cyclohexylethoxy)-[1,1′-biphenyl]-3-yl)-5-((1R,2R)-2-(1-methyl-1H-1,2,3-triazol-4-yl)cyclopropyl)-1H-pyrazole-4-carboxylate]: the EC50 in experiment [1] fell in the range of 100 to 1000 nM. The IC50 in experiment [2] is more than 10000 nM; in experiment [3] it was 1000 to 10000 nM.

For the compound `C[C@H](Oc1cccc(-c2cccc(-n3ncc(C(=O)OCCN4CCOCC4)c3[C@@H]3C[C@H]3c3cn(C)nn3)c2)c1)C1CCCCC1` [Example 108, 2-Morpholinoethyl 1-(3′-((S)-1-cyclohexylethoxy)-[1,1′-biphenyl]-3-yl)-5-((1R,2R)-2-(1-methyl-1H-1,2,3-triazol-4-yl)cyclopropyl)-1H-pyrazole-4-carboxylate], the EC50 in experiment [1] fell in the range of 10 to 100 nM. Besides, the IC50 in experiment [2] was more than 10000 nM; in experiment [3] it was 1000 to 10000 nM.

As for `C[C@H](Oc1cccc(-c2cccc(-n3ncc(C(=O)OCOC(=O)C(C)(C)C)c3[C@@H]3C[C@H]3c3cn(C)nn3)c2)c1)C1CCCCC1` [Example 109, (Pivaloyloxy)methyl 1-(3′-((S)-1-cyclohexylethoxy)-[1,1′-biphenyl]-3-yl)-5-((1R,2R)-2-(1-methyl-1H-1,2,3-triazol-4-yl)cyclopropyl)-1H-pyrazole-4-carboxylate], the EC50 in experiment [1] is 1 to 10 nM. Besides, the values for the IC50 in experiment [2] and in experiment [3] were more than 10000 nM and 100 to 1000 nM, respectively.

`CC(=O)OCOC(=O)c1cnn(-c2cccc(-c3cccc(O[C@@H](C)C4CCCCC4)c3)c2)c1[C@@H]1C[C@H]1c1cn(C)nn1` [Example 110, Acetoxymethyl 1-(3′-((S)-1-cyclohexylethoxy)-[1,1′-biphenyl]-3-yl)-5-((1R,2R)-2-(1-methyl-1H-1,2,3-triazol-4-yl)cyclopropyl)-1H-pyrazole-4-carboxylate]: in experiment [1], the EC50 is less than 1 nM. Further, the figures for the IC50 in experiment [2] and in experiment [3] were 100 to 1000 nM and 10 to 100 nM, respectively.

Regarding `C[C@H](Oc1cccc(-c2cccc(-n3ncc(C(=O)OCOC(=O)c4ccccc4)c3[C@@H]3C[C@H]3c3cn(C)nn3)c2)c1)C1CCCCC1` [Example 111, (Benzoyloxy)methyl 1-(3′-((S)-1-cyclohexylethoxy)-[1,1′-biphenyl]-3-yl)-5-((1R,2R)-2-(1-methyl-1H-1,2,3-triazol-4-yl)cyclopropyl)-1H-pyrazole-4-carboxylate], in experiment [1], the concentration giving a half-maximal response (EC50) fell in the range of 1 to 10 nM. Further, the IC50 in experiment [2] was more than 10000 nM; in experiment [3], 100 to 1000 nM.

Regarding `C[C@H](Oc1cccc(-c2cccc(-n3ncc(C(=O)OCOC(=O)OC(C)(C)C)c3[C@@H]3C[C@H]3c3cn(C)nn3)c2)c1)C1CCCCC1` [Example 112, ((tert-Butoxycarbonyl)oxy)methyl 1-(3′-((S)-1-cyclohexylethoxy)-[1,1′-biphenyl]-3-yl)-5-((1R,2R)-2-(1-methyl-1H-1,2,3-triazol-4-yl)cyclopropyl)-1H-pyrazole-4-carboxylate], the EC50 in experiment [1] fell in the range of 1 to 10 nM. In addition, the IC50 in experiment [2] was more than 10000 nM; in experiment [3], 100 to 1000 nM.

Regarding `Cc1cc([C@@H]2C[C@H]2c2c(C(=O)O)cnn2-c2cccc(-c3cccc(O[C@@H](C)C4CCCCC4)c3)c2)on1` [Example 115, 1-(3′-((S)-1-cyclohexylethoxy)-[1,1′-biphenyl]-3-yl)-5-((1R,2R)-2-(3-methylisoxazol-5-yl)cyclopropyl)-1H-pyrazole-4-carboxylic Acid], in experiment [1], the EC50 lay within 100 to 1000 nM. Moreover, the IC50 in experiment [2] and in experiment [3] was 100 to 1000 nM in each case.

Regarding `CC[C@H]1COc2ccccc2CN1Cc1cccc(-c2cccc(-n3ncc(C(=O)O)c3[C@@H]3C[C@H]3c3cn(C)nn3)c2)c1` [Example 119, 1-(3′-(((S)-3-Ethyl-2,3-dihydrobenzo[f][1,4]oxazepin-4(5H)-yl)methyl)-[1,1′-biphenyl]-3-yl)-5-((1R,2R)-2-(1-methyl-1H-1,2,3-triazol-4-yl)cyclopropyl)-1H-pyrazole-4-carboxylic Acid], the EC50 in experiment [1] is 100 to 1000 nM. Besides, the IC50 in experiment [2] is 10 to 100 nM; in experiment [3], less than 10 nM.

Turning to `CC[C@@H]1COc2ccccc2CN1Cc1cccc(-c2cccc(-n3ncc(C(=O)O)c3[C@@H]3C[C@H]3c3cn(C)nn3)c2)c1` [Example 120, 1-(3′-(((R)-3-Ethyl-2,3-dihydrobenzo[f][1,4]oxazepin-4(5H)-yl)methyl)-[1,1′-biphenyl]-3-yl)-5-((1R,2R)-2-(1-methyl-1H-1,2,3-triazol-4-yl)cyclopropyl)-1H-pyrazole-4-carboxylic Acid], in experiment [1], the EC50 is 10 to 100 nM. Also, the values for the IC50 in experiment [2] and in experiment [3] were 10 to 100 nM and less than 10 nM, respectively.

The record behind these values is patent publication US10364256B2 (GlaxoSmithKline Intellectual Property Development Limited, priority 2015, dated 2019).
